# Measured values from patent US12629398B2, “Method of alleviating obsessive compulsive disorder symptoms by use of a multi-strain probiotic formulation” (Unique Biotech Limited, priority 2024, dated 2026).
# Entries after “also recorded” stand apart in the source; their conditions may differ. Counter-ions that a name gives are not always drawn.
# Assays:
# quinpirole-injected rats [1] = assay: Elevated plus maze (EPM) test, anxiety-like behavior, quinpirole OCD model; format: in vivo, Wistar rats; conditions: fluoxetine 10 mg/kg peroral 6 weeks with quinpirole
# Source text: (§1) Experimental design was as given in Ref 12, incorporated herein in its entirety. The rats were randomly distributed into 5 different groups, with 6-8 rats per group (FIG. 1). Group 1, referred to as the “Vehicle” group, received the vehicle for a duration of 8 weeks. Group 2, denoted as the “Probiotic” group, received the peroral (PO) multistrain probiotic at a dose of 1× 10^10 CFU per rat for 8 weeks.
# quinpirole-injected rats [2] = assay: Marble burying test, quinpirole OCD model; format: in vivo, Wistar rats; conditions: 10 min; quinpirole vs. control; quinpirole effect among rats that received probiotic or fluoxetine
# Source text: as §1
# quinpirole-injected rats [3] = assay: Self-grooming test, quinpirole OCD model; format: in vivo, Wistar rats; conditions: 10 min; quinpirole vs. vehicle; treatments vs. quinpirole group
# Source text: as §1
# quinpirole-injected rats [4] = assay: Hole board test, quinpirole OCD model; format: in vivo, Wistar rats; conditions: 5-minute session; quinpirole vs. vehicle; treatments in quinpirole rats
# Source text: as §1
# nNOS = assay: Western blot analysis of nNOS in the frontal cortex; format: in vivo, rat; conditions: quinpirole vs. vehicle, treatments vs. quinpirole group
# Source text: as §1
# Radioimmunoprecipitation Assay (RIPA) buffer was used to homogenize the frontal cortex part of the rat brain and then resolved using sodium dodecyl sulfate-polyacrylamide gel electrophoresis (SDS-PAGE). The proteins were then transferred to a nitrocellulose membrane, blocked with 5% bovine serum albumin, and incubated with the primary antibody anti-NOS1 (sc-5302, 1:1000 dilution) overnight at 4° C., followed by incubation with horseradish peroxidase-conjugate secondary antibody at RT. The required proteins were then detected by using an ECL solution.
# TNF-α = assay: Real-time PCR of cytokine mRNA in the amygdala: TNF-α; format: in vivo, rat; conditions: quinpirole vs. vehicle, treatments vs. quinpirole group
# Method: as §1
# (§2) RT-PCR was performed to analyze the impact of a multistrain probiotic on cytokines mRNA expression (Ref 20, Rahman et al). Briefly, NucleoSpin® RNA isolation kit (#740955.50, DSS Takara Bio India Private Ltd) was used to extract RNA from the rat brain's amygdala. PrimeScript™ 1st strand cDNA synthesis kit (#6110A, DSS Takara Bio India Private Ltd) was used to process these RNA samples to cDNA. The 10 μL reaction mixture was prepared by mixing 5 μL of SYBR Green, 2 μL of the PCR primer (1 μL reverse+1 μL forward) (GCC Biotech, India, Private Ltd.). 1 μL of diluted cDNA template and 2 μL nuclease-free water. For each PCR test, the threshold cycle numbers were averaged across all samples. Using Δ/Δ Ct technique, the relative mRNA expression was calculated. The primers were designed (Table 6) using the software tools NCBI BLAST.
# IL-6 = assay: Real-time PCR of cytokine mRNA in the amygdala: IL-6; format: in vivo, rat; conditions: quinpirole vs. vehicle, treatments vs. quinpirole group
# Method: as §1, §2
# CRP = assay: Real-time PCR of cytokine mRNA in the amygdala: CRP; format: in vivo, rat; conditions: quinpirole vs. vehicle, treatments vs. quinpirole group
# Method: as §1, §2
# SCFAs = assay: Short-chain fatty acids (SCFAs) in fecal samples by GC-FID; format: in vivo, rat; conditions: treatments given in quinpirole rats, compared to OCD, unit from Table 7
# Source text: as §1
# The gas chromatography-flame ionization detection (GC-FID) was used to evaluate the effect of OCD on bacterial metabolites as described earlier in our publications (Ref 22, Rahman et al & Ref 23, Satti et al). Briefly, supernatant acidified with HCL (5 M) and then extracted in diethyl ether to estimate the SCFAs. The acetate, propionate, and butyrate levels were estimated by loading the known amount of each SCFA.
# colon = assay: Colon histopathology (H&E and alcian blue-PAS staining); format: in vivo, rat; conditions: quinpirole vs. control, treatments vs. quinpirole-recipient rats
# Method: as §1
# To examine the gut permeability, H&E and alcian-blue PAS staining were performed. The method is already described in our publications (Ref 20, 21, and 22), incorporated herein in its entirety. Briefly, sections were processed for deparaffinization with xylene, rehydration with alcohol, and then stained with H&E and alcian blue-PAS agents. Finally, slides were mounted with (DPX) followed by observations under a microscope (Leica-ICC50 W).
SMILES,open-arms activity (quinpirole-injected rats [1]),number of marbles buried (increase by quinpirole) (quinpirole-injected rats [2]),"self-grooming activity (number of grooming episodes, score) (quinpirole-injected rats [3])",head dipping activity (quinpirole-injected rats [4]),expression of nNOS (nNOS),mRNA expression of TNF-α (TNF-α),mRNA expression of IL-6 (IL-6),mRNA expression of CRP (CRP),butyrate level (SCFAs),propionate level (SCFAs),number of mature goblet cells (colon),villus height/crypt depth ratio (colon)
"CNCCC(Oc1ccc(C(F)(F)F)cc1)c1ccccc1 (stereo not shown) [Fluoxetine, fluoxetine]",improved,nonsignificant,did not notice any change,less response,significantly reduced; also recorded: decreased,prevents,prevents,prevents,3.39 ± 0.32 µg/mL,2.99 ± 0.55 µg/mL,significantly increased,significantly increased
"CCCN1CCC[C@@H]2Cc3n[nH]cc3C[C@H]21 [Quinpirole, (−)-Quinpirole hydrochloride]",,,,,,,,significant increase,,,,
